Test results from the Kinase Knowledgebase extract (Sharma et al. 2016).

Target: CDK2 (UniProt P24941)

- Kd: 3.2 µM
SMILES: O=C1c2ccccc2-c2n[nH]c3cccc1c23
